pIC50, pKi: −log10 of the molar value.
Biological target: T1, Pancreatic alpha-amylase (Sus scrofa, UniProt P00690)
T1 sequence (P00690 whole entry): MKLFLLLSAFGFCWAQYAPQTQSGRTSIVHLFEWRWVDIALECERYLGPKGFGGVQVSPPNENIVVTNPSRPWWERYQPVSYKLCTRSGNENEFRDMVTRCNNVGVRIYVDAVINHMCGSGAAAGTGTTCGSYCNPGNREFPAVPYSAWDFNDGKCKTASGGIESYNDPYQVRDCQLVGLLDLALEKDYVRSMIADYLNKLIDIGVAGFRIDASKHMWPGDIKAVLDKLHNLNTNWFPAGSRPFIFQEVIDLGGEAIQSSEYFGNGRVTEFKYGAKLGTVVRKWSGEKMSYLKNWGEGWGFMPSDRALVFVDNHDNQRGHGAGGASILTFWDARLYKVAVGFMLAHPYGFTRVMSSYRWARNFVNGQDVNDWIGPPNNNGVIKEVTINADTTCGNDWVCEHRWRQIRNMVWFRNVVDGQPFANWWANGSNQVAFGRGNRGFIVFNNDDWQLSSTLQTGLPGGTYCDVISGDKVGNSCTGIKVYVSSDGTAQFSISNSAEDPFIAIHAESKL
Assay: Enzymatic Activity Assay
Settings: pH 7; 37 °C
Excerpt: To test whether GCTs share a common binding pocket on PPA with acarbose, we performed an experiment according to the method of Yonetani and Theorell.

In order of falling pIC50:
1. OC1[C@H](O)O[C@H](Cn2cc(C3=CCCCC3)nn2)[C@@H]1O (some centres not stated) [GPESB15]  4.45
2. OC1[C@H](O)O[C@H](Cn2cc(-c3ccccc3)nn2)[C@@H]1O (some centres not stated) [GPESB14]  4.05
3. CO[C@@H]1O[C@H](Cn2cc(COC(C)=O)nn2)[C@@H]2OC(C)(C)OC12 (some centres not stated) [GPESB11]  3.90
4. CO[C@@H]1O[C@H](Cn2cc(C3=CCCCC3)nn2)[C@@H]2OC(C)(C)OC12 (some centres not stated) [GPESB02]  3.82
5. CO[C@@H]1O[C@H](Cn2cc(C3(O)CCCCC3)nn2)[C@@H]2OC(C)(C)OC12 (some centres not stated) [GPESB07]  3.45
6. CO[C@@H]1O[C@H](Cn2cc(-c3ccccc3)nn2)[C@@H]2OC(C)(C)OC12 (some centres not stated) [GPESB01]  3.44

In order of falling pKi:
1. OC1[C@H](O)O[C@H](Cn2cc(C3=CCCCC3)nn2)[C@@H]1O (some centres not stated) [GPESB15]  4.47
2. OC1[C@H](O)O[C@H](Cn2cc(-c3ccccc3)nn2)[C@@H]1O (some centres not stated) [GPESB14]  3.69
3. CO[C@@H]1O[C@H](Cn2cc(COC(C)=O)nn2)[C@@H]2OC(C)(C)OC12 (some centres not stated) [GPESB11]  3.63
4. CO[C@@H]1O[C@H](Cn2cc(C3=CCCCC3)nn2)[C@@H]2OC(C)(C)OC12 (some centres not stated) [GPESB02]  3.47
5. CO[C@@H]1O[C@H](Cn2cc(-c3ccccc3)nn2)[C@@H]2OC(C)(C)OC12 (some centres not stated) [GPESB01]  3.11
6. CO[C@@H]1O[C@H](Cn2cc(C3(O)CCCCC3)nn2)[C@@H]2OC(C)(C)OC12 (some centres not stated) [GPESB07]  3.00

Source: BindingDB's records for doi:10.1002/cbic.201200272 (Yonsei University, 2012)
